From US10869926B2, “Suppression of myeloid derived suppressor cells and immune checkpoint blockade” (The Johns Hopkins University, priority 2014, dated 2020)
Several values for one entry are separate records, joined by “and”; a condition that tells them apart may be missing. Identical values can stand only once.

Tests used:
[1] = test system: 4T1 tumors; assay: 4T1 primary tumors and metastatic lesions (metastasis analysis); type: in vivo, BALB/c mice; details: for metastases (in words) / primary tumors (in words): 4T1, sacrificed six weeks after tumor implantation; for Liver Mets / Lung Mets / Primary Tumor Vol (mm^3) / Spleen Mets: six weeks after tumor implantation
Procedure: Tumor volume was calculated as length×width×0.5.
On day 46 post-tumor implantations, 4T1 tumor bearing mice were euthanized according to the IACUC guidelines. Lungs, livers and spleens were harvested and fixed in 10% Neutral Buffered Formalin Solution (Sigma-Aldrich) and metastatic nodules were counted from at least three mice per group.

[2] = test system: MHC-I, B2M and TAP1 genes in 4T1 cells; assay: RT-PCR of genes involved in MHC-I presentation; type: cell-based, murine; details: 4T1 cells cultured in vitro
Procedure: (§1) 5×10^6 CT26 or 4T1 cells were resuspended in 0.75 ml Trizol LS Reagent (Invitrogen Life Technologies) and 0.25 ml chloroform (Sigma-Aldrich). Samples were vortexed for 15 seconds and incubated for 10 minutes at 20° C. […] Samples were centrifuged at 12000 g for 10 minutes at 4° C. after 10 minute incubation at 20° C. The resulting pellets were air dried for less than 10 minutes and were resuspended with RNAse-free water (Invitrogen Life Technologies) for a final concentration of 500 ng/μl. PCR was performed using SuperScript III One-Step RT-PCR System with Platinum Taq DNA Polymerase (Invitrogen Life Technologies). Annealing temperature was set at 55° C. for H-2D(d), β2m and TAP1, and set at 60° C. for β-actin. […] The following […] used for RT-PCR: H-2D(d) Forward [NT] (SEQ ID NO: 1), H-2D(d) Reverse [NT] ID NO: 2), β2m Forward [NT] ID NO: 3), β2m Reverse [NT] ID NO: 4), TAP1 Forward [NT] ID NO: 5), TAP1 Reverse [NT] ID NO: 6), β-actin Forward [NT] ID NO: 7), β-actin Reverse [NT] ID NO: 8).

[3] = test system: MHC-I, B2M and TAP1 genes in CT26 cells; assay: RT-PCR of genes involved in MHC-I presentation; type: cell-based, murine; details: CT26 cells cultured in vitro
Procedure: as §1

[4] = test system: G-MDSCs; assay: In vitro survival assay (WST-1); type: cell-based, mouse; details: 24 hours, 0 to 50 μM
Source text: (§2) MDSCs from 4T1 tumor-bearing animals were isolated from spleens using Myeloid-Derived Suppressor Cell Isolation Kit, mouse (Miltenyi Biotec) and BD FACS Aria III cell sorter (BD Biosciences). CD8^+ cells were isolated from spleens of 4T1-bearing animals treated with anti-PD-1 and anti-CTLA-4 antibodies using CD8a^+ T Cell Isolation Kit II, mouse (Miltenyi Biotec) and BD FACS Aria III cell sorter (BD Biosciences). MDSC, Tregs, and CD8^+ T cells were isolated and cultured by following the manufacturer's protocols and published protocols (38, 39). The purity of G-MDSCs (CD11b^+Ly6G^+Ly6C^loF4/80^−MHC-II^−) and CD8^+ (CD3^+CD8^+) populations were greater than 95% as determined by flow cytometry, and the viability was greater than 95% for these populations as determined by trypan blue staining.
(§3) MDSCs and CD8^+ T cells were plated on 96-well plate at 2×10^6 cells/ml in RPMI1640 medium supplemented with 10% FBS. CD8^+ T cell cultures were supplemented with recombinant interleukin-2 (Invitrogen Life Technologies) at 2000 U/ml. […] The proportion of viable cells was assessed by incubating the cells with 10% (v/v) Cell Proliferation Reagent WST-1 (Roche Applied Science) for 3 hours at 37° C. and measuring OD450 absorbance of the resulting formazan products.

[5] = test system: 4T1 cells; assay: In vitro survival assay (WST-1); type: cell-based, murine; details: 24 hours, 0 to 50 μM
Procedure: 4T1 (CRL-2539, murine breast tumor cells) and CT26 (CRL-2638, murine colorectal adenocarcinoma) were purchased from ATCC. Both tumor cell lines were grown in McCoy's 5A supplemented with 10% Fetal Bovine Serum at 37° C., 5% CO2.
MDSCs and CD8^+ T cells were plated on 96-well plate at 2×10^6 cells/ml in RPMI1640 medium supplemented with 10% FBS. CD8^+ T cell cultures were supplemented with recombinant interleukin-2 (Invitrogen Life Technologies) at 2000 U/ml. 4T1 cells in McCoy 5A supplemented with 10% FBS were plated on 96-well plate and cultured until they reached >70% confluency. Cells were cultured with entinostat, 5-azacytidine, or J32 at concentrations ranging from 0 μM to 50 μM for 24 hours at 37° C., 5% CO2. The proportion of viable cells was assessed by incubating the cells with 10% (v/v) Cell Proliferation Reagent WST-1 (Roche Applied Science) for 3 hours at 37° C. and measuring OD450 absorbance of the resulting formazan products.

[6] = test system: G-MDSCs; assay: Flow cytometry of G-MDSCs in 4T1 tumor-bearing mice; type: in vivo, BALB/c mice; details: added to / in combination with PD-1/CTLA-4 inhibition
Source text: The following antibodies and reagents were used for flow cytometry: CD16/32 (BD Biosciences), CD3e Alexa Fluor 488 (14-C11; BD Biosciences), CD4 Brilliant Violet 421 (GK1.5, BD Biosciences), CD8a PerCP-Cy5.5 (53-6.7, BD Biosciences), CD25 PE (PC61, BD Biosciences), Foxp3 Alexa Fluor 647 (MF23, BD Biosciences), CD11b Alexa Fluor 700 (M1/70, BD Biosciences), I-A/I-E Alexa Fluor 488 (M5/114.15.2, BD Biosciences), Ly-6C PerCP-Cy5.5 (AL-21, BD Biosciences), CD11c PE (HL3, BD Biosciences), F4/80 APC (BM8, Biolegend), Ly-6G Pacific Blue (1A8, Biolegend), CD45 Pacific Orange (30-F11, Invitrogen Life Technologies), and Live/Dead Fixable Near IR Dead Cell Stain (Invitrogen Life Technologies). Flow cytometry was performed with LSR II (BD Biosciences) and the data was analyzed with FACS Diva software (BD Biosciences). To assess the level of circulating G-MDSC population, blood samples were collected from the mice 7 days after the initiation of the anti-PD-1/anti-CTLA-4 antibody treatments with or without 5-AZA/Entinostat. […] CD8^+ T cell level was assessed using previously established phenotypic criteria of CD45^+CD3^+CD8^+ and total CD45^+CD3^+ cells was used as a common denominator. Treg cell level was assessed using previously established phenotypic criteria of CD45^+CD3^+CD4^+CD25^+FoxP3^+ and total CD45^+CD3^+CD4^+ cells were used as a common denominator.

[7] = test system: CD8+ T cells; assay: In vitro survival assay (WST-1); type: cell-based, mouse; details: 24 hours, 0 to 50 μM
Source text: as §2, §3

[8] = test system: IFN-γ secretion in co-cultures of G-MDSCs and CD8+ T cells; assay: IFN-γ assay in G-MDSC / CD8+ T cell co-cultures (ELISA); type: cell-based, mouse; details: G-MDSC to CD8+ T cell ratio 1:1, 24 hours, 0 to 0.25 μM
Procedure: Freshly isolated MDSCs and CD8^+ T cells from 4T1 tumor-bearing animals were cultured at MDSC to CD8^+ T cell ratios of 5:1, 2:1, 1:1, 1:2, and 1:5 in presence of recombinant IL-2 (Invitrogen Life Technologies) at 2000 U/mL and CD3/CD28 antibody coated beads (Miltenyi). MDSC and CD8^+ T cells were cultured at 1:1 ratio with entinostat at concentrations ranging from 0 μM to 0.25 μM. Cell-free supernatants were collected after 24-hour incubation at 37° C. and IFN-γ levels were assayed using Mouse IFN-γ DuoSet Elisa Development Kit (R&D Systems) according to the manufacturer's instruction.

[9] = mouse, in vivo
Procedure: Body weight measurements. BALB/c mice bearing 4T1 tumors were treated with indicated therapeutic modalities. Their body weights were measured and recorded regularly after treatments. Means and standard deviations of data are shown.
Six to eight weeks old female BALB/C mice (Harlan Laboratories) were used for all animal experiments. 5×10^6 4 T1 tumor cells or 5×10^6 CT26 tumor cells were inoculated subcutaneously into the right flank of each mouse. Tumors were allowed to grow for 11 days prior to randomization and treatment. CT26 bearing mice were given 10 mg/kg of anti-PD-1 and/or anti-CTLA-4 antibodies intraperitoneally on day 11, 13, 15, 17, 20, 23 and 26 post-tumor implantations and 4T1 bearing mice were given 10 mg/kg anti-PD-1 and/or anti-CTLA-4 antibodies intraperitoneally on day 11, 13, 15, and 17 post-tumor implantations. 4T1 tumor bearing mice were given a single dose of 10 mg/kg anti-CD25 antibody or 10 mg/kg anti-Ly6G antibody intraperitoneally on day 12 post-tumor implantation for cell depletion studies. All antibodies were diluted to appropriate concentrations in 100 μl sterile PBS, pH 7.4 (Invitrogen Life Technologies). […] 4T1 bearing mice were injected intraperitoneally on day 12, 14, 16, and 18. […] Tumor volume was calculated as length×width×0.5.

[10] = individual mouse, listed as ENT

**Q.** Which “metastases (in words)” value [1] does the source give for `Nc1ncn([C@@H]2O[C@H](CO)[C@@H](O)[C@H]2O)c(=O)n1` [AZA, 5-azacytidine] here?
**A.** unable to eradicate either primary tumor or metastasis

**Q.** What about the “primary tumors (in words)” value [1] of the same molecule?
**A.** unable to eradicate either primary tumor or metastasis

**Q.** What about the “Liver Mets” value ([1]; AVERAGE of group) of the same molecule?
**A.** 12

**Q.** And the “Lung Mets” value ([1]; AVERAGE of group)?
**A.** 17

**Q.** And the “Primary Tumor Vol (mm^3)” value ([1]; AVERAGE of group)?
**A.** 2750 mm^3

**Q.** And the “Spleen Mets” value ([1]; AVERAGE of group)?
**A.** 1

**Q.** And the “Liver Mets” value ([1]; individual mouse)?
**A.** 0 (3×) and 43 and 16

**Q.** And the “Lung Mets” value ([1]; individual mouse)?
**A.** 20 (2×) and 16 and 17 and 14

**Q.** What about the “Primary Tumor Vol (mm^3)” value ([1]; individual mouse) of the same molecule?
**A.** 2345 mm^3 and 2454 mm^3 and 2477 mm^3 and 4358 mm^3 and 2117 mm^3

**Q.** What about the “Spleen Mets” value ([1]; individual mouse) of the same molecule?
**A.** 0 (3×) and 3 and 1

**Q.** And the “expression of MHC-I, B2M and TAP1 genes” value [2]?
**A.** did not significantly increase the expression

**Q.** And the “expression of MHC-I, B2M and TAP1 genes” value [3]?
**A.** did not significantly increase the expression

**Q.** What about the cell viability [4] of the same molecule?
**A.** no effect at comparable concentrations

**Q.** What about the cell viability [5] of the same molecule?
**A.** unresponsive

**Q.** Which “metastases (in words)” value [1] does the source give for `Nc1ccccc1NC(=O)c1ccc(CNC(=O)OCc2cccnc2)cc1` [entinostat] here?
**A.** unable to eradicate either primary tumor or metastasis

**Q.** And the “primary tumors (in words)” value [1]?
**A.** unable to eradicate either primary tumor or metastasis

**Q.** And the “Liver Mets” value ([1]; AVERAGE of group)?
**A.** 4

**Q.** And the “Lung Mets” value ([1]; AVERAGE of group)?
**A.** 17

**Q.** And the “Primary Tumor Vol (mm^3)” value ([1]; AVERAGE of group)?
**A.** 3483 mm^3

**Q.** What about the “Spleen Mets” value ([1]; AVERAGE of group) of the same molecule?
**A.** 1

**Q.** What about the “Liver Mets” value [1, 10] of the same molecule?
**A.** 10 and 3 and 0 (2×) and 6

**Q.** What about the “Lung Mets” value [1, 10] of the same molecule?
**A.** 25 and 20 (2×) and 0 and 22

**Q.** And the “Primary Tumor Vol (mm^3)” value [1, 10]?
**A.** 3005 mm^3 and 5038 mm^3 and 2275 mm^3 and 3063 mm^3 and 4032 mm^3

**Q.** What about the “Spleen Mets” value [1, 10] of the same molecule?
**A.** 1 and 0 (3×) and 3

**Q.** What about the “expression of MHC-I, B2M and TAP1 genes” value [2] of the same molecule?
**A.** did not significantly increase the expression

**Q.** And the “expression of MHC-I, B2M and TAP1 genes” value [3]?
**A.** did not significantly increase the expression

**Q.** And the “number of circulating G-MDSCs” value [6]?
**A.** striking reduction in the number of circulating G-MDSCs

**Q.** And the cell viability [4]?
**A.** markedly reduced viability

**Q.** And the cell viability [7]?
**A.** only modest effects

**Q.** And the cell viability [5]?
**A.** unresponsive

**Q.** What about the “IFN-γ secretion inhibited by G-MDSCs” value [8] of the same molecule?
**A.** reversed the inhibition in a dose-dependent manner

**Q.** What about the “toxicity as indicated by body weight changes” value [9] of the same molecule?
**A.** Temporary self-limiting toxicity
